# Laboratory results taken from the NIST ThermoML archive (doi:10.1021/je700260f).
# Numbers after ± are expanded uncertainties.
# Conditions: 283.15 K, Liquid, Vibrating tube method
smiles,measurement,setting,value
"FC(C(F)(F)F)C(F)(F)F [1,1,1,2,3,3,3-heptafluoropropane]",mass density,10458 kPa,1500.1 ± 1.6 kg/m3
same,mass density,10488 kPa,1500.2 ± 1.6 kg/m3
same,mass density,10528 kPa,1500.3 ± 1.6 kg/m3
same,mass density,10559 kPa,1500.4 ± 1.6 kg/m3
same,mass density,10588 kPa,1500.6 ± 1.6 kg/m3
same,mass density,10774 kPa,1501.4 ± 1.6 kg/m3
same,mass density,10816 kPa,1501.5 ± 1.6 kg/m3
same,mass density,10838 kPa,1501.7 ± 1.6 kg/m3
same,mass density,10868 kPa,1501.8 ± 1.6 kg/m3
same,mass density,10899 kPa,1502 ± 1.6 kg/m3
same,mass density,10925 kPa,1502.1 ± 1.6 kg/m3
same,mass density,10959 kPa,1502.2 ± 1.6 kg/m3
same,mass density,10981 kPa,1502.4 ± 1.6 kg/m3
same,mass density,11024 kPa,1502.5 ± 1.6 kg/m3
same,mass density,11055 kPa,1502.6 ± 1.6 kg/m3
same,mass density,12114 kPa,1507 ± 1.6 kg/m3
same,mass density,12149 kPa,1507.1 ± 1.6 kg/m3
same,mass density,12177 kPa,1507.2 ± 1.6 kg/m3
same,mass density,12214 kPa,1507.4 ± 1.6 kg/m3
same,mass density,12245 kPa,1507.6 ± 1.6 kg/m3
same,mass density,12281 kPa,1507.6 ± 1.6 kg/m3
same,mass density,12311 kPa,1507.7 ± 1.6 kg/m3
same,mass density,12342 kPa,1507.9 ± 1.6 kg/m3
same,mass density,12373 kPa,1508 ± 1.6 kg/m3
same,mass density,12405 kPa,1508.2 ± 1.6 kg/m3
same,mass density,12437 kPa,1508.3 ± 1.6 kg/m3
same,mass density,12476 kPa,1508.3 ± 1.6 kg/m3
same,mass density,12508 kPa,1508.5 ± 1.6 kg/m3
same,mass density,12544 kPa,1508.6 ± 1.6 kg/m3
same,mass density,12576 kPa,1508.7 ± 1.6 kg/m3
same,mass density,12608 kPa,1509 ± 1.6 kg/m3
same,mass density,12641 kPa,1509.1 ± 1.6 kg/m3
same,mass density,12677 kPa,1509.2 ± 1.6 kg/m3
same,mass density,12709 kPa,1509.4 ± 1.6 kg/m3
same,mass density,12748 kPa,1509.5 ± 1.6 kg/m3
same,mass density,12780 kPa,1509.7 ± 1.6 kg/m3
same,mass density,13258 kPa,1511.5 ± 1.6 kg/m3
same,mass density,13353 kPa,1512 ± 1.6 kg/m3
same,mass density,14612 kPa,1516.6 ± 1.6 kg/m3
same,mass density,14643 kPa,1516.8 ± 1.6 kg/m3
same,mass density,14673 kPa,1516.9 ± 1.6 kg/m3
same,mass density,14713 kPa,1517.2 ± 1.6 kg/m3
same,mass density,14739 kPa,1517.4 ± 1.6 kg/m3
same,mass density,14769 kPa,1517.4 ± 1.6 kg/m3
same,mass density,14799 kPa,1517.6 ± 1.6 kg/m3
same,mass density,14834 kPa,1517.7 ± 1.6 kg/m3
same,mass density,14886 kPa,1517.8 ± 1.6 kg/m3
same,mass density,14927 kPa,1517.9 ± 1.6 kg/m3
same,mass density,14957 kPa,1518.1 ± 1.6 kg/m3
same,mass density,14998 kPa,1518.3 ± 1.6 kg/m3
same,mass density,15045 kPa,1518.4 ± 1.6 kg/m3
same,mass density,15086 kPa,1518.5 ± 1.6 kg/m3
same,mass density,15117 kPa,1518.8 ± 1.6 kg/m3
same,mass density,15153 kPa,1518.8 ± 1.6 kg/m3
same,mass density,15184 kPa,1518.9 ± 1.6 kg/m3
same,mass density,15215 kPa,1519.2 ± 1.6 kg/m3
same,mass density,15256 kPa,1519.2 ± 1.6 kg/m3
same,mass density,15287 kPa,1519.4 ± 1.6 kg/m3
same,mass density,15328 kPa,1519.4 ± 1.6 kg/m3
same,mass density,15365 kPa,1519.5 ± 1.6 kg/m3
same,mass density,15400 kPa,1519.8 ± 1.6 kg/m3
same,mass density,15442 kPa,1519.9 ± 1.6 kg/m3
same,mass density,15474 kPa,1520 ± 1.6 kg/m3
same,mass density,15505 kPa,1520 ± 1.6 kg/m3
same,mass density,15536 kPa,1520.4 ± 1.6 kg/m3
same,mass density,15572 kPa,1520.5 ± 1.6 kg/m3
same,mass density,15607 kPa,1520.5 ± 1.6 kg/m3
same,mass density,15643 kPa,1520.7 ± 1.6 kg/m3
same,mass density,15673 kPa,1520.8 ± 1.6 kg/m3
same,mass density,15714 kPa,1521 ± 1.6 kg/m3
same,mass density,16087 kPa,1522.4 ± 1.6 kg/m3
same,mass density,16114 kPa,1522.4 ± 1.6 kg/m3
same,mass density,16151 kPa,1522.5 ± 1.6 kg/m3
same,mass density,16175 kPa,1522.7 ± 1.6 kg/m3
same,mass density,16606 kPa,1524.3 ± 1.6 kg/m3
same,mass density,16678 kPa,1524.6 ± 1.6 kg/m3
same,mass density,16711 kPa,1524.5 ± 1.6 kg/m3
same,mass density,17447 kPa,1527.3 ± 1.6 kg/m3
same,mass density,17481 kPa,1527.3 ± 1.6 kg/m3
same,mass density,17515 kPa,1527.4 ± 1.6 kg/m3
same,mass density,17545 kPa,1527.7 ± 1.6 kg/m3
same,mass density,17593 kPa,1527.7 ± 1.6 kg/m3
same,mass density,18341 kPa,1530.5 ± 1.6 kg/m3
same,mass density,18418 kPa,1530.6 ± 1.6 kg/m3
same,mass density,18457 kPa,1530.8 ± 1.6 kg/m3
same,mass density,18487 kPa,1530.8 ± 1.6 kg/m3
same,mass density,18526 kPa,1531.1 ± 1.6 kg/m3
same,mass density,18571 kPa,1531.1 ± 1.6 kg/m3
same,mass density,19435 kPa,1534.2 ± 1.6 kg/m3
same,mass density,19479 kPa,1534.3 ± 1.6 kg/m3
same,mass density,19508 kPa,1534.3 ± 1.6 kg/m3
same,mass density,19536 kPa,1534.5 ± 1.6 kg/m3
same,mass density,19574 kPa,1534.6 ± 1.6 kg/m3
same,mass density,19602 kPa,1534.7 ± 1.6 kg/m3
same,mass density,19640 kPa,1534.9 ± 1.6 kg/m3
same,mass density,19673 kPa,1535 ± 1.6 kg/m3
same,mass density,19706 kPa,1535.1 ± 1.6 kg/m3
same,mass density,19739 kPa,1535.3 ± 1.6 kg/m3
same,mass density,19785 kPa,1535.4 ± 1.6 kg/m3
same,mass density,19809 kPa,1535.4 ± 1.6 kg/m3
same,mass density,19854 kPa,1535.6 ± 1.6 kg/m3
same,mass density,19878 kPa,1535.6 ± 1.6 kg/m3
same,mass density,19911 kPa,1535.8 ± 1.6 kg/m3
same,mass density,19949 kPa,1535.8 ± 1.6 kg/m3
same,mass density,19977 kPa,1536.1 ± 1.6 kg/m3
same,mass density,20004 kPa,1536 ± 1.6 kg/m3
same,mass density,20033 kPa,1536.1 ± 1.6 kg/m3
same,mass density,20218 kPa,1536.8 ± 1.6 kg/m3
same,mass density,20257 kPa,1536.9 ± 1.6 kg/m3
same,mass density,20300 kPa,1537.1 ± 1.6 kg/m3
same,mass density,20333 kPa,1537.1 ± 1.6 kg/m3
same,mass density,20396 kPa,1537.4 ± 1.6 kg/m3
same,mass density,20492 kPa,1537.8 ± 1.6 kg/m3
same,mass density,20536 kPa,1538 ± 1.6 kg/m3
same,mass density,20566 kPa,1538 ± 1.6 kg/m3
same,mass density,20605 kPa,1538.1 ± 1.6 kg/m3
same,mass density,20635 kPa,1538.2 ± 1.6 kg/m3
same,mass density,20671 kPa,1538.4 ± 1.6 kg/m3
same,mass density,20709 kPa,1538.4 ± 1.6 kg/m3
same,mass density,20746 kPa,1538.6 ± 1.6 kg/m3
same,mass density,20776 kPa,1538.6 ± 1.6 kg/m3
same,mass density,20810 kPa,1538.7 ± 1.6 kg/m3
same,mass density,20840 kPa,1538.9 ± 1.6 kg/m3
same,mass density,20879 kPa,1539.1 ± 1.7 kg/m3
same,mass density,20918 kPa,1539.3 ± 1.7 kg/m3
same,mass density,20961 kPa,1539.3 ± 1.7 kg/m3
same,mass density,20991 kPa,1539.4 ± 1.7 kg/m3
same,mass density,21029 kPa,1539.6 ± 1.7 kg/m3
same,mass density,21058 kPa,1539.4 ± 1.7 kg/m3
same,mass density,21099 kPa,1539.7 ± 1.7 kg/m3
same,mass density,21129 kPa,1539.8 ± 1.7 kg/m3
same,mass density,21172 kPa,1539.9 ± 1.7 kg/m3
same,mass density,21208 kPa,1540.1 ± 1.7 kg/m3
same,mass density,21242 kPa,1540.3 ± 1.7 kg/m3
same,mass density,21281 kPa,1540.4 ± 1.7 kg/m3
same,mass density,21310 kPa,1540.4 ± 1.7 kg/m3
same,mass density,21350 kPa,1540.7 ± 1.7 kg/m3
same,mass density,21418 kPa,1540.9 ± 1.7 kg/m3
same,mass density,21453 kPa,1540.9 ± 1.7 kg/m3
same,mass density,21503 kPa,1541.2 ± 1.7 kg/m3
same,mass density,21541 kPa,1541.2 ± 1.7 kg/m3
same,mass density,21571 kPa,1541.3 ± 1.7 kg/m3
same,mass density,21610 kPa,1541.4 ± 1.7 kg/m3
same,mass density,21645 kPa,1541.5 ± 1.7 kg/m3
same,mass density,21684 kPa,1541.6 ± 1.7 kg/m3
same,mass density,21709 kPa,1541.6 ± 1.7 kg/m3
same,mass density,21753 kPa,1541.9 ± 1.7 kg/m3
same,mass density,21784 kPa,1542 ± 1.7 kg/m3
same,mass density,21834 kPa,1542.2 ± 1.7 kg/m3
same,mass density,21870 kPa,1542.3 ± 1.7 kg/m3
same,mass density,21901 kPa,1542.3 ± 1.7 kg/m3
same,mass density,21936 kPa,1542.5 ± 1.7 kg/m3
same,mass density,21972 kPa,1542.7 ± 1.7 kg/m3
same,mass density,22011 kPa,1542.7 ± 1.7 kg/m3
same,mass density,22041 kPa,1542.8 ± 1.7 kg/m3
same,mass density,22080 kPa,1543.1 ± 1.7 kg/m3
same,mass density,22115 kPa,1543.2 ± 1.7 kg/m3
same,mass density,22145 kPa,1543.2 ± 1.7 kg/m3
same,mass density,22190 kPa,1543.1 ± 1.7 kg/m3
same,mass density,22231 kPa,1543.5 ± 1.7 kg/m3
same,mass density,22261 kPa,1543.6 ± 1.7 kg/m3
same,mass density,22302 kPa,1543.7 ± 1.7 kg/m3
same,mass density,22349 kPa,1543.9 ± 1.7 kg/m3
same,mass density,22379 kPa,1543.9 ± 1.7 kg/m3
same,mass density,22424 kPa,1544 ± 1.7 kg/m3
same,mass density,22459 kPa,1544.1 ± 1.7 kg/m3
same,mass density,22539 kPa,1544.5 ± 1.7 kg/m3
same,mass density,22579 kPa,1544.6 ± 1.7 kg/m3
same,mass density,22710 kPa,1545.1 ± 1.7 kg/m3
same,mass density,22747 kPa,1545.1 ± 1.7 kg/m3
same,mass density,22782 kPa,1545.2 ± 1.7 kg/m3
same,mass density,22829 kPa,1545.3 ± 1.7 kg/m3
same,mass density,22864 kPa,1545.6 ± 1.7 kg/m3
same,mass density,22974 kPa,1545.8 ± 1.7 kg/m3
same,mass density,23050 kPa,1545.9 ± 1.7 kg/m3
same,mass density,23131 kPa,1546.2 ± 1.7 kg/m3
same,mass density,23178 kPa,1546.5 ± 1.7 kg/m3
same,mass density,23230 kPa,1546.7 ± 1.7 kg/m3
same,mass density,23275 kPa,1546.8 ± 1.7 kg/m3
same,mass density,23311 kPa,1546.9 ± 1.7 kg/m3
same,mass density,23342 kPa,1546.9 ± 1.7 kg/m3
same,mass density,23378 kPa,1547.1 ± 1.7 kg/m3
same,mass density,23418 kPa,1547.2 ± 1.7 kg/m3
same,mass density,23678 kPa,1548 ± 1.7 kg/m3
same,mass density,23750 kPa,1548.3 ± 1.7 kg/m3
same,mass density,23792 kPa,1548.5 ± 1.7 kg/m3
same,mass density,24059 kPa,1549.2 ± 1.7 kg/m3
same,mass density,24099 kPa,1549.4 ± 1.7 kg/m3
same,mass density,24146 kPa,1549.5 ± 1.7 kg/m3
same,mass density,24192 kPa,1549.5 ± 1.7 kg/m3
same,mass density,24228 kPa,1549.8 ± 1.7 kg/m3
same,mass density,24269 kPa,1549.9 ± 1.7 kg/m3
same,mass density,24309 kPa,1550.1 ± 1.7 kg/m3
same,mass density,24608 kPa,1550.8 ± 1.7 kg/m3
same,mass density,24649 kPa,1551 ± 1.7 kg/m3
same,mass density,24695 kPa,1551.2 ± 1.7 kg/m3
same,mass density,24731 kPa,1551.2 ± 1.7 kg/m3
same,mass density,24761 kPa,1551.4 ± 1.7 kg/m3
same,mass density,24807 kPa,1551.5 ± 1.7 kg/m3
same,mass density,24838 kPa,1551.8 ± 1.7 kg/m3
same,mass density,24869 kPa,1551.8 ± 1.7 kg/m3
same,mass density,24920 kPa,1551.9 ± 1.7 kg/m3
same,mass density,24950 kPa,1552 ± 1.7 kg/m3
same,mass density,24990 kPa,1552.1 ± 1.7 kg/m3
same,mass density,25031 kPa,1552.2 ± 1.7 kg/m3
